Results reported in patent US4584293A, “Aminotetralin derivatives” (Dr. Karl Thomae GmbH, priority 1984, dated 1986).
Where a name gives a salt, the structure may show the parent alone.

Experiments:
Format in all cases: in vivo
[1] = tested on: heart rate; test: Effect on heart rate in rats (anesthetized, i.v.); settings: 5.0 mg/kg into jugular vein, pentobarbital-anesthetized rats
Procedure: The effect of the test substances on heart rate is tested in rats (two) with an average weight of from 250 to 300 g for each dose. The rats are anesthetized with pentobarbital (50 mg/kg i.p. and 20 mg/kg s.c.). The test substances are injected in aqueous solution into the jugular vein (0.1 ml/100 g). The blood pressure is measured using a canula tied into a carotid artery and heart rate was recorded from an ECG (II or III derivation) obtained with needle electrodes. The heart rate of the animals in the control period is between 350 and 400 beats per minute (b/min).

[2] = tested on: heart rate; test: Effect on heart rate in cats (anesthetised, i.v.); settings: chloralose-anesthetised cats
Procedure: The effect of the test substances on heart rate is tested on cats (seven) of both sexes with an average weight of from 2.5 to 3.5 kg for each dose. The cats are anesthetised with chloralose (80 mg/kg). The test substance is injected in aqueous solution into the vena saphena. The heart rate is recorded before and after administration of the substance using a Grass tachograph from the electrocardiogram (electrode attached to the chest wall) on a Grass polygraph.

[3] = Toxic side effects in mice after intravenous administration; settings: administered intravenously, 20 mg/kg in mice
From the text: The compounds prepared according to the invention have no toxic side effects in therapeutic doses. […] In view of their pharmacological properties the compounds according to the invention are suitable for the treatment of sinus tachycardia of various origins and for the prophylaxis and therapy of ischaemic heart diseases.

Structure (SMILES)	Lowering of heart rate measured 20 minutes after administration of substance [1] [b/min]	Half life ([2]; 0.3 mg/kg i.v.) [h]	Lowering of heart rate ([2]; 0.3 mg/kg i.v.) [%]	Half life ([2]; 1.0 mg/kg i.v.) [h]	Lowering of heart rate ([2]; 1.0 mg/kg i.v.) [%]	toxic side effects [3]
COc1cc2c(cc1OC)CC(=O)N(CCCN(C)C1CCc3cc(OC)c(OC)cc3C1)CC2.Cl (stereo not drawn) [Substance A, 1-[7,8-Dimethoxy-1,3,4,5-tetrahydro-2H-3-benzazepin-2-on-3-yl]-3-[N-methyl-N-(6,7-dimethoxy-1,2,3,4-tetrahydronaphth-2-yl)-amino]-propane hydrochloride]	-176	> 2	-30	> 2	-58	no toxic side effects apart from slight sedation
COc1cc2c(cc1OC)CC(=O)N(CCCNC1CCc3cc(OC)c(OC)cc3C1)CC2.Cl (stereo not drawn) [Substance B, 1-[7,8-Dimethoxy-1,3,4,5-tetrahydro-2H-3-benzazepin-2-on-3-yl]-3-[N-(6,7-dimethoxy-1,2,3,4-tetrahydronaphth-2-yl)-amino]-propane hydrochloride]	-203	–	–	> 2	-55	no toxic side effects apart from slight sedation
COc1ccc2c(c1)CC(N(C)CCCN1CCc3cc(OC)c(OC)cc3CC1=O)CC2 (stereo not drawn) [Substance C, 1-7,8-Dimethoxy-1,3,4,5-tetrahydro-2H-3-benzazepin-2-on-3-yl]-3-[N-methyl-N-(7-methoxy-1,2,3,4-tetrahydronaphth-2-yl)-amino]-propane hydrochloride]	-184	–	–	–	–	–
COc1ccc2c(c1)CCC(N(C)CCCN1CCc3cc(OC)c(OC)cc3CC1=O)C2.Cl (stereo not drawn) [Substance D, 1-[7,8-Dimethoxy-1,3,4,5-tetrahydro-2H-3-benzazepin-2-on-3-yl]-3-[N-methyl-N-(6-methoxy-1,2,3,4-tetrahydronaphth-2-yl)-amino]-propane hydrochloride]	-165	–	–	–	–	–
